Structures can show the parent of a compound that is named as a salt.
| Structure (SMILES) | melting point |
| --- | --- |
| O=S(=O)(c1ccc(F)cc1)c1ccc2[nH]c3c(c2c1)CCNCC3 [Example 2, 9-[(4-Fluorophenyl)sulfonyl]-1,2,3,4,5,6-hexahydroazepino[4,5-b]indole] | 168 °C (dec.) |
| Cl.O=S(=O)(c1cc(F)cc(F)c1)c1ccc2[nH]c3c(c2c1)CCNCC3 | 313 to 315 °C (dec.) |
| CCn1c2c(c3cc(S(=O)(=O)c4ccc(F)cc4)ccc31)CCNCC2.Cl | 227 to 233 °C (dec.) |
| Cl.O=S(=O)(c1ccc(C(F)(F)F)cc1)c1ccc2[nH]c3c(c2c1)CCNCC3 | 278 to 279 °C (dec.) |
| Cl.O=S(=O)(c1ccc(F)c(F)c1)c1ccc2[nH]c3c(c2c1)CCNCC3 | 320 °C (dec.) |
| CCn1c2c(c3cc(S(=O)(=O)c4ccccc4)ccc31)CCNCC2 [Example 8, 6-Ethyl-9-(phenylsulfonyl)-1,2,3,4,5,6-hexahydroazepino[4,5-b]indole] | 224 °C (dec.) |
| O=S(=O)(c1cccc(F)c1)c1ccc2[nH]c3c(c2c1)CCNCC3 [Example 5, 9-[(3-Fluorophenyl)sulfonyl]-1,2,3,4,5,6-hexahydroazepino[4,5-b]indole] | 153 to 156 °C |
| Cn1c2c(c3cc(S(=O)(=O)c4ccc(OCCO)cc4)ccc31)CCNCC2 (as salt: hydrochloride) [Example 17, 9-[(4-(2-Hydroxyethoxy)phenyl)sulfonyl]-6-methyl-1,2,3,4,5,6-hexahydroazepino[4,5-b]indole hydrochloride] | 285 to 287 °C (dec.) |
| Cl.Cn1c2c(c3cc(S(=O)(=O)c4cc(F)cc(F)c4)ccc31)CCNCC2 | 337 to 340 °C (dec.) |
| CC(C)N1CCc2c(n(C)c3ccc(S(=O)(=O)c4ccc(F)cc4)cc23)CC1 [Example 20, 9-[(4-fluorophenyl)sulfonyl]-3-isopropyl-6-methyl-1,2,3,4,5,6-hexahydroazepino[4,5-b]indole] | 282 to 283 °C (dec.) |
| Cc1ccc(S(=O)(=O)c2ccc3[nH]c4c(c3c2)CCNCC4)cc1 [Example 3, 9-[(4-Methylphenyl)sulfonyl]-1,2,3,4,5,6-hexahydroazepino[4,5-b]indole] | 125 °C (dec.) |
| COc1ccc(S(=O)(=O)c2ccc3[nH]c4c(c3c2)CCNCC4)cc1 [Example 4, 9-[(4-Methoxyphenyl)sulfonyl]-1,2,3,4,5,6-hexahydroazepino[4,5-b]indole] | 139 °C (dec.) |
| Cl.Cn1c2c(c3cc(S(=O)(=O)c4ccccc4)ccc31)CCNCC2 | > 300 °C |
| COc1cccc(S(=O)(=O)c2ccc3[nH]c4c(c3c2)CCNCC4)c1.Cl | 232 to 235 °C (dec.) |
| CN1CCc2[nH]c3ccc(S(=O)(=O)c4ccccc4)cc3c2CC1 | 150 °C (dec.) |
| Cl.O=S(=O)(c1ccccc1)c1ccc2[nH]c3c(c2c1)CCNCC3 | 290 to 291.5 °C |
| CN1CCc2c(n(C)c3ccc(S(=O)(=O)c4ccccc4)cc23)CC1 [Example 18, 3,6-Dimethyl-9-(phenylsulfonyl)-1,2,3,4,5,6-hexahydroazepino[4,5-b]indole] | 283 to 286 °C |

Source: patent publication US20040248880A1, “1,2,3,4,5,6-Hexahydroazepino[4,5-B]indoles containing arylsulfones at the 9-position” (priority 2003, published 2004)
